Results: patent US20250243464A1, “ENHANCED DIFFERENTIATION OF PANCREATIC ISLET CELLS” (Vertex Pharmaceuticals Incorporated, priority 2022, published 2025)

Experiments:
EZH2 = EZH2 (Homo sapiens, UniProt Q15910); conditions: cited from earlier work
Sox17+/Oct4− cells = assay: Flow cytometry for Sox17 and Oct4 at S1C after amino acid supplementation in S1 of Protocol 2; format: cell-based; conditions: supplementation in S1 to final 200 μM aspartate, 300 μM glycine, 585 μM serine, Protocol 2, 0.3 L scale
Protocol: (§1) To determine whether supplementation of amino acids identified in Example 1 altered cellular differentiation outcomes, the following experiments were conducted. […] A control condition following Protocol 2 only was also performed.
The amino acid supplemented S1 base media were utilized for each S1 feed in a Protocol 2 differentiation at 0.3 L scale, alongside a control. At S1C, samples of cells were collected, stained with Sox17 and Oct4 and analyzed by flow cytometry.

PDX1+/NKX6.1− cells = assay: Flow cytometry for NKX6.1 and PDX1 at S3C after amino acid supplementation in S1; format: cell-based; conditions: supplementation in S1 to final 200 μM aspartate, 300 μM glycine, 585 μM serine
Protocol: as §1
At S3C, samples of the cells that were supplemented with different amino acids during S1C were collected and stained with NKX6.1 and PDX1 and analyzed using flow cytometry. […] In the control, 89.3% of cells were in PDX1+/NKX6.1-, while in aspartate supplemented samples 90% of cells were PDX1+/NKX6.1-(FIG. 6B).

PDX1+/NKX6.1+ cells = assay: Flow cytometry for NKX6.1 and PDX1 at S4C after amino acid supplementation in S1; format: cell-based; conditions: supplementation in S1 to final 200 μM aspartate, 300 μM glycine, 585 μM serine
Protocol: as §1
At S4C, samples of the cells that were supplemented with different amino acids during the S1C step were collected and stained with NKX6.1 and PDX1 and analyzed using flow cytometry.

[1] = tested on: ISL1+/NKX6.1+ (β-like) cells and ISL1+/NKX6.1− (α-like) cells; assay: Flow cytometry for NKX6.1 and ISL1 at S5C after amino acid supplementation in S1; format: cell-based; conditions: supplementation in Stage 1; for amount of SC-β-cells / SC-β-cell composition versus control: Stage 5 (S5C)
Protocol: as §1
(§2) At S5C, samples of the cells that were supplemented with different amino acids during S1C were collected and stained with NKX6.1 and ISL1 and analyzed using flow cytometry. […] To determine how amino acid supplementation affected yield, cell viability assays were performed.
(§3) In the next set of experiments, different combinations of amino acids were tested for their effects on yield and β-cell composition. […] The control group only received treatment with Protocol 2. […] The amino acid supplemented S1 base media were utilized for each S1 feed in a Protocol 2 differentiation at 0.3 L scale, alongside a control. At S5C, samples of cells were collected, stained with NKX6.1 and ISL1 and analyzed by flow cytometry. […] To determine how amino acid supplementation affected yield, cell viability assays were performed.

viable cell density = assay: Cell viability assays / yield of Protocol 2 differentiation with amino acid supplementation in S1; format: cell-based
Protocol: as §2, §3

Chain of EZH2 (Q15910 whole entry, species assumed): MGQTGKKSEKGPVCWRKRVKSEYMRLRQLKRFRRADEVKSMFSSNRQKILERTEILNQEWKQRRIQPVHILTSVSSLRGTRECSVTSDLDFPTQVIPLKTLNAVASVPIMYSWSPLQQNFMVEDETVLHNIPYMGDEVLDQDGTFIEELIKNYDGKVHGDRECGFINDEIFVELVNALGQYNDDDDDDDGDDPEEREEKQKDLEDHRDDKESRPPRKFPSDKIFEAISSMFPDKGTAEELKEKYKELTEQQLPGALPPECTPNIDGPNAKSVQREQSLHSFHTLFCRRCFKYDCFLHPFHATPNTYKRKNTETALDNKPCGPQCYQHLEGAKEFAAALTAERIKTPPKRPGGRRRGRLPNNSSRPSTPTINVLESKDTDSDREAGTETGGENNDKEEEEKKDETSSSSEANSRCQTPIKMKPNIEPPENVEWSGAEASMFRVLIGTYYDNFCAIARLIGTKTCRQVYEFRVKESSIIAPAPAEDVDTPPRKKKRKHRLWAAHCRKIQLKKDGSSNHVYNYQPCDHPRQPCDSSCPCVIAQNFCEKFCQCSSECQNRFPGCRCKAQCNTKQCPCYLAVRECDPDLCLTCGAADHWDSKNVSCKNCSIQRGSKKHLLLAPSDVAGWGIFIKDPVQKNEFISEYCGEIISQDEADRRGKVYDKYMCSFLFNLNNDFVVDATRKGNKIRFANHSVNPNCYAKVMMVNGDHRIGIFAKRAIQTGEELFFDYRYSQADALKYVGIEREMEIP
Chain of EZH2 (O75530 whole entry partner, species assumed): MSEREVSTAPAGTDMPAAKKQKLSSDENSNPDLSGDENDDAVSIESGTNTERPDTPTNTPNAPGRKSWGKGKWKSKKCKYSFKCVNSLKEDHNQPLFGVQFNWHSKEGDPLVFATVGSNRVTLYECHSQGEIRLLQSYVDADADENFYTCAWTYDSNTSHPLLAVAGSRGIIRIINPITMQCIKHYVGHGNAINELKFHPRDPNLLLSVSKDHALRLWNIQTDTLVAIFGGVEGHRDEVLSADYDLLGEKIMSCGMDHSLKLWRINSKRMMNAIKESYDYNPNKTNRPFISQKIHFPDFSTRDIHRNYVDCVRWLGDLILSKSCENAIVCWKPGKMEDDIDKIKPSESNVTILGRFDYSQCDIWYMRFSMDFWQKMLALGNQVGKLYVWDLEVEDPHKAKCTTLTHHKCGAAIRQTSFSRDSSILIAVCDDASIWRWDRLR
Chain of EZH2 (Q15022 whole entry partner, species assumed): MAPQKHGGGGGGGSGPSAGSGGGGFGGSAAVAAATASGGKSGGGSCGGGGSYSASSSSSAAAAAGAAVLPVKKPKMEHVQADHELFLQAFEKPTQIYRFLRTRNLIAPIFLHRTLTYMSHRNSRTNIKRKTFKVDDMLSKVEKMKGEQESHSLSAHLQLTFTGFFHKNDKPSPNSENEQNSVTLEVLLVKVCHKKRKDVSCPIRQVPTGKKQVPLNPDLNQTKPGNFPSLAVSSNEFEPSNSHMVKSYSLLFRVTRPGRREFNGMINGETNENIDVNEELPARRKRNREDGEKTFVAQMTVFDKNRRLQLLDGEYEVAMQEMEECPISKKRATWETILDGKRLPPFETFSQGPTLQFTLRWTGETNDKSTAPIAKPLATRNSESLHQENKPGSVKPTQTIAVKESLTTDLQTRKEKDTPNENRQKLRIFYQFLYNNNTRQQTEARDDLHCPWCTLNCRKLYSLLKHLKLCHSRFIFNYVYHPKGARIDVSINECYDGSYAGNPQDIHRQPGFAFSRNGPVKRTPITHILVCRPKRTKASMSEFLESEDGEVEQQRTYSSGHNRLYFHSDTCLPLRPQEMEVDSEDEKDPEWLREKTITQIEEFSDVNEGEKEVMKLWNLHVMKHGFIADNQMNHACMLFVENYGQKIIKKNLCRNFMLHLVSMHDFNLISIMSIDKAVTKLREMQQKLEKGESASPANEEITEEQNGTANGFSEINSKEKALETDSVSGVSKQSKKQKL

Row | Molecule | selectivity over EZH1 (EZH2; EZH2 versus EZH1) [fold] | % of Sox17+/Oct3/4− cells (Sox17+/Oct4− cells) [%] | % of PDX1+/NKX6.1− cells (PDX1+/NKX6.1− cells) [%] | % of PDX1+/NKX6.1+ cells (PDX1+/NKX6.1+ cells) [%] | α-like cell development ([1]; S5C) | yield (viable cells at harvest) relative to the control (viable cell density) | selectivity compared with GSK126 (EZH2) | amount of SC-β-cells / SC-β-cell composition versus control [1]
1 | CC[C@H](C)n1cc(C)c2c(C(=O)NCc3c(C)cc(C)[nH]c3=O)cc(-c3ccc(N4CCNCC4)nc3)cc21 [GSK126] | 150 |  |  |  |  |  |  | 
2 | N[C@@H](CO)C(=O)O [Protocol 2 + Serine, serine] |  | 72.9 | 89.1 | 72.1 | promoted α-like cell development | decreased yield |  | 
3 | CCCc1cc(C)[nH]c(=O)c1CNC(=O)c1cc(-c2ccc(N3CCN(C(C)C)CC3)nc2)cc2c1cnn2C(C)C [UNC1999] |  |  |  |  |  |  | less selective | 
4 | aspartate [Protocol 2 + Aspartate] |  | 75.6 | 90 | 77.8 |  |  |  | increased
5 | glycine [Protocol 2 + Glycine] |  | 81.1 | 89.1 | 77.2 |  | decreased yield |  | increased
